From patent US11590116B2 (THERAVANCE BIOPHARMA R&D IP, LLC, priority 2019, dated 2023) come the findings set out here.

Assay [1] has as its target T1, recombinant human ALK5 (TGF-βR1) protein (Homo sapiens, UniProt P36897).
T1 construct: purchased Life Technologies PR9075A
T1 sequence (P36897 34-503): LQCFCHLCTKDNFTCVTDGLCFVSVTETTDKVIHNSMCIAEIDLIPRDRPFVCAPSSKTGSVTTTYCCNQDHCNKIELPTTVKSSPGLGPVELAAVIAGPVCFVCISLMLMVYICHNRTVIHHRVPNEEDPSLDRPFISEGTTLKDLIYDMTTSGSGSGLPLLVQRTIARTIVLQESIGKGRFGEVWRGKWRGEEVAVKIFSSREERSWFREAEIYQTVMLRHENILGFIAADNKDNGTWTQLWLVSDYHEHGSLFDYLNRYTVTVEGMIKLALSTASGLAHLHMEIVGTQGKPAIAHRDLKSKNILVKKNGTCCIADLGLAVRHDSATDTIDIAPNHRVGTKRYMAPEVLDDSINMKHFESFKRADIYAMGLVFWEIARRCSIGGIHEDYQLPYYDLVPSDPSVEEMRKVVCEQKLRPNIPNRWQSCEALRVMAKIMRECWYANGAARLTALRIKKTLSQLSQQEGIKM
As to the kind of experiment: Biochemical ALK5 (TGF-βR1) assay to measure pKi (LANCE Ultra ULight kinase assay). The note with it: apparent pKi from pIC50 by Cheng-Prusoff, read-out: ALK5 pKi (converted). In short, it runs like this: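 After a 60 min room-temperature preincubation of ALK5 with compound, phosphorylation proceeds 60 min at 37 °C on ATP addition (125 μM as 5× stock). Detection: Eu-labelled phospho-Thr1342 Topo IIα antibody in EDTA buffer, pH 7.0; emission 665 nm.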
(In general: Time-resolved FRET reads energy transfer from a long-lived donor to a nearby acceptor.)

Assay [2] has as its system TGF-β-stimulated SMAD3 phosphorylation in BEAS-2B cells. As to the kind of experiment: Cellular ALK5 potency assay, inhibition of TGF-β stimulated pSMAD3 formation in BEAS-2B cells. The note with it: Homo sapiens; inhibition of TGF-β stimulated pSMAD3 formation, BEAS-2B cells; read-out: BEAS2B pIC50 (converted). It is filed as cell-based. A digest of the protocol: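 SMAD3 phosphorylation was measured by AlphaLISA after 30 min TGF-β stimulation (10 ng/mL final) of BEAS-2B cells preincubated 1 h with compound at 37 °C. Results given as pIC50.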

Take `Cc1cccc(-c2[nH]cnc2-c2ccc3ncc(C(=O)OC[C@H]4CCCN4)cc3c2)n1` [Compound 760, [(2R)-pyrrolidin-2-yl]methyl 6-[5-(6-methyl-2-pyridyl)-1H-imidazol-4-yl]quinoline-3-carboxylate]: the Ki in assay [1] is 0.398 to 3.16 nM. Further, the IC50 in assay [2] was 25.1 to 158 nM.

As to `Cc1cccc(-c2[nH]cnc2-c2ccc3ncc(NC[C@@H]4CCCN4)cc3c2)n1` [Compound 679, 6-[5-(6-methyl-2-pyridyl)-1H-imidazol-4-yl]-N-[[(2S)-pyrrolidin-2-yl]methyl]quinolin-3-amine], the Ki in assay [1] is 0.0398 to 0.316 nM. Moreover, the IC50 in assay [2] was 200 to 1260 nM.

As for `Cc1cccc(-c2[nH]cnc2-c2ccc3ncc(C(=O)OC[C@@H]4CCCNC4)cc3c2)n1` [Compound 877, (R)-piperidin-3-ylmethyl 6-(5-(6-methylpyridin-2-yl)-1H-imidazol-4-yl)quinoline-3-carboxylate], the Ki in assay [1] is 0.0398 to 0.316 nM. The IC50 in assay [2] was 25.1 to 158 nM.

Turning to `Cc1cccc(-c2n[nH]cc2-c2ccc3ncc(N4CCC(N)C4)cc3n2)n1` (stereo not drawn) [Compound 626, 1-[6-[3-(6-methyl-2-pyridyl)-1H-pyrazol-4-yl]-1,5-naphthyridin-3-yl]pyrrolidin-3-amine], the Ki in assay [1] is less than 0.0316 nM. The IC50 in assay [2] was 25.1 to 158 nM.

`Cc1cccc(-c2nc3ccccn3c2-c2ccc3ncc(-c4cn[nH]c4)cc3c2)n1` [Compound 592, 6-[2-(6-methyl-2-pyridyl)imidazo[1,2-a]pyridin-3-yl]-3-(1H-pyrazol-4-yl)quinoline]: the Ki in assay [1] was less than 0.0316 nM. In assay [2], the IC50 is less than 20 nM.

As for `Cc1cccc(-c2[nH]cnc2-c2ccc3ncc(-c4ccc(C(=O)OC5CCNCC5)cn4)cc3c2)n1` [Compound 1094, 4-piperidyl 6-[6-[5-(6-methyl-2-pyridyl)-1H-imidazol-4-yl]-3-quinolyl]pyridine-3-carboxylate], in assay [1], the Ki was less than 0.0316 nM. Further, the IC50 in assay [2] was 25.1 to 158 nM.

Consider `Cc1cccc(-c2n[nH]cc2-c2ccc3nccc(N4CCNCC4)c3n2)n1` [Compound 856, 2-[3-(6-methyl-2-pyridyl)-1H-pyrazol-4-yl]-8-piperazin-1-yl-1,5-naphthyridine], for which, in assay [1], the Ki is 0.0398 to 0.316 nM. Further, the IC50 in assay [2] was 25.1 to 158 nM.

As to `Cc1cccc(-c2n[nH]cc2-c2ccc3ncc(-c4cncc(N)n4)cc3n2)n1` [Compound 235, 6-[6-[3-(6-methyl-2-pyridyl)-1H-pyrazol-4-yl]-1,5-naphthyridin-3-yl]pyrazin-2-amine], the Ki in assay [1] was 0.0398 to 0.316 nM. Further, in assay [2], the IC50 was 25.1 to 158 nM.

For `Cc1cccc(-c2[nH]cnc2-c2ccc3ncc(C(=O)OC[C@H]4CCCNC4)cc3c2)n1` [Compound 772, [(3S)-3-piperidyl]methyl 6-[5-(6-methyl-2-pyridyl)-1H-imidazol-4-yl]quinoline-3-carboxylate], in assay [1], the Ki is 0.0398 to 0.316 nM. The IC50 in assay [2] was 25.1 to 158 nM.

Take `Cc1cccc(-c2[nH]cnc2-c2ccc3ncc(NC4CCNCC4)cc3c2)n1` [Compound 187, 6-[5-(6-methyl-2-pyridyl)-1H-imidazol-4-yl]-N-(4-piperidyl)quinolin-3-amine]: in assay [1], the Ki is 0.0398 to 0.316 nM. For the same compound, the IC50 in assay [2] was 200 to 1260 nM.

As for `Cc1cccc(-c2n[nH]cc2-c2ccc3nccc(N(C)CC(=O)N4CCOCC4)c3n2)n1` [Compound 836, 2-[methyl-[6-[3-(6-methyl-2-pyridyl)-1H-pyrazol-4-yl]-1,5-naphthyridin-4-yl]amino]-1-morpholino-ethanone], in assay [1], the Ki was 3.98 to 31.6 nM. In addition, the IC50 in assay [2] is 200 to 1260 nM.

Regarding `Cc1cccc(-c2n[nH]cc2-c2ccc3ncc(N(C)C4CCN(C(C)C)C4)cc3n2)n1` (racemic) [Compound 503, N-methyl-6-[3-(6-methyl-2-pyridyl)-1H-pyrazol-4-yl]-N-[rac-(3R)-1-isopropylpyrrolidin-3-yl]-1,5-naphthyridin-3-amine], the Ki in assay [1] was less than 0.0316 nM. The IC50 in assay [2] is 25.1 to 158 nM.

`Cc1cccc(-c2[nH]cnc2-c2ccc3ncc(C(=O)OCCCN4CCCC4)cc3c2)n1` [Compound 738, 3-pyrrolidin-1-ylpropyl 6-[5-(6-methyl-2-pyridyl)-1H-imidazol-4-yl]quinoline-3-carboxylate]: in assay [1], the Ki was 0.0398 to 0.316 nM. Besides, in assay [2], the IC50 is 25.1 to 158 nM.

Turning to `COC(=O)c1cnc2ccc(-c3nc[nH]c3-c3cccc(C)n3)cc2c1` [Compound 732, methyl 6-[5-(6-methyl-2-pyridyl)-1H-imidazol-4-yl]quinoline-3-carboxylate], the Ki in assay [1] was 0.0398 to 0.316 nM. The IC50 in assay [2] was less than 20 nM.

For `Cc1nc(-c2nc3ccccn3c2-c2ccc3ncc(N4CCC(N(C)C)C4)cc3n2)ccc1F` (racemic) [Compound 347, rac-(3S)-1-[6-[2-(5-fluoro-6-methyl-2-pyridyl)imidazo[1,2-a]pyridin-3-yl]-1,5-naphthyridin-3-yl]-N,N-dimethyl-pyrrolidin-3-amine], the Ki in assay [1] was 0.0398 to 0.316 nM. Also, the IC50 in assay [2] was 25.1 to 158 nM.

For `Cc1cccc(-c2[nH]cnc2-c2ccc3ncc(-c4cnc5c(c4)CNC5)cc3c2)n1` [Compound 443, 3-(6,7-dihydro-5H-pyrrolo[3,4-b]pyridin-3-yl)-6-[5-(6-methyl-2-pyridyl)-1H-imidazol-4-yl]quinoline], the Ki in assay [1] is 0.0398 to 0.316 nM. Moreover, the IC50 in assay [2] was 25.1 to 158 nM.

On to `Cc1cccc(-c2[nH]cnc2-c2ccc3ncc(-c4csc(C(=O)O)n4)cc3c2)n1` [Compound 1152, 4-[6-[5-(6-methyl-2-pyridyl)-1H-imidazol-4-yl]-3-quinolyl]thiazole-2-carboxylic acid], for which, in assay [1], the Ki is less than 0.0316 nM. For the same compound, the IC50 in assay [2] is less than 20 nM.

Take `Cc1cccc(-c2[nH]cnc2-c2ccc3ncc(C4=C[C@H](C)N[C@H](C)C4)cc3c2)n1` [Compound 451, 3-[(2R,6S)-2,6-dimethyl-1,2,3,6-tetrahydropyridin-4-yl]-6-[5-(6-methyl-2-pyridyl)-1H-imidazol-4-yl]quinoline]: the Ki in assay [1] is 0.0398 to 0.316 nM. Also, the IC50 in assay [2] was 25.1 to 158 nM.

`Cc1nc(-c2n[nH]cc2-c2ccc3ncc(N4CCCNCC4)cc3n2)ccc1F` [Compound 318, 7-(1,4-diazepan-1-yl)-2-[3-(5-fluoro-6-methyl-2-pyridyl)-1H-pyrazol-4-yl]-1,5-naphthyridine]: the Ki in assay [1] is 0.0398 to 0.316 nM. Besides, the IC50 in assay [2] is 25.1 to 158 nM.

For `Cc1cccc(-c2n[nH]cc2-c2ccc3ncc(-c4cnc5n4CCCN5)cc3n2)n1` [Compound 655, 2-[3-(6-methyl-2-pyridyl)-1H-pyrazol-4-yl]-7-(5,6,7,8-tetrahydroimidazo[1,2-a]pyrimidin-3-yl)-1,5-naphthyridine], in assay [1], the Ki was 0.0398 to 0.316 nM. The IC50 in assay [2] is 25.1 to 158 nM.

Regarding `Cc1nc(-c2nc3ccccn3c2-c2ccc3ncc(-c4cnn5c4CNCC5)cc3n2)ccc1F` [Compound 89, 2-[2-(5-fluoro-6-methyl-2-pyridyl)imidazo[1,2-a]pyridin-3-yl]-7-(4,5,6,7-tetrahydropyrazolo[1,5-a]pyrazin-3-yl)-1,5-naphthyridine], the Ki in assay [1] is 0.0398 to 0.316 nM. The IC50 in assay [2] was 25.1 to 158 nM.

Turning to `Cc1cccc(-c2[nH]cnc2-c2ccc3ncc(-c4ccc5c(c4)CCC5N)cc3c2)n1` (stereo not drawn) [Compound 275, 5-[6-[5-(6-methyl-2-pyridyl)-1H-imidazol-4-yl]-3-quinolyl]indan-1-amine], the Ki in assay [1] is 0.0398 to 0.316 nM. Moreover, the IC50 in assay [2] was 25.1 to 158 nM.

Turning to `Cc1nc(-c2nc3ccccn3c2-c2ccc3ncc(-c4cn5c(n4)CNCC5)cc3n2)ccc1F` [Compound 555, 2-[2-(5-fluoro-6-methyl-2-pyridyl)imidazo[1,2-a]pyridin-3-yl]-7-(5,6,7,8-tetrahydroimidazo[1,2-a]pyrazin-2-yl)-1,5-naphthyridine], the Ki in assay [1] is 0.0398 to 0.316 nM. For the same compound, in assay [2], the IC50 is 25.1 to 158 nM.

Consider `CCC(=O)Nc1cnc2ccc(-c3c[nH]nc3-c3cccc(C)n3)nc2c1` [Compound 234, N-[6-[3-(6-methyl-2-pyridyl)-1H-pyrazol-4-yl]-1,5-naphthyridin-3-yl]propanamide], for which the Ki in assay [1] was less than 0.0316 nM. For the same compound, the IC50 in assay [2] is less than 20 nM.

Regarding `Cc1cccc(-c2nn3c(c2-c2ccc4ncc(-c5cn[nH]c5)cc4c2)CNCC3)n1` [Compound 402, 6-[2-(6-methyl-2-pyridyl)-4,5,6,7-tetrahydropyrazolo[1,5-a]pyrazin-3-yl]-3-(1H-pyrazol-4-yl)quinoline], the Ki in assay [1] was 0.0398 to 0.316 nM. For the same compound, in assay [2], the IC50 is 25.1 to 158 nM.

As to `Cc1cccc(-c2[nH]cnc2-c2ccc3ncc(-c4ccc(C(=O)OC5CNC5)nc4)cc3c2)n1` [Compound 616, azetidin-3-yl 5-[6-[5-(6-methyl-2-pyridyl)-1H-imidazol-4-yl]-3-quinolyl]pyridine-2-carboxylate], in assay [1], the Ki was 0.0398 to 0.316 nM. In assay [2], the IC50 is 25.1 to 158 nM.

On to `Cc1cccc(-c2nc3ccccn3c2-c2ccc3ncc(N4CCCNCC4)cc3c2)n1` [Compound 363, 3-(1,4-diazepan-1-yl)-6-[2-(6-methyl-2-pyridyl)imidazo[1,2-a]pyridin-3-yl]quinoline], for which the Ki in assay [1] is 0.0398 to 0.316 nM. In addition, the IC50 in assay [2] was 25.1 to 158 nM.
